# Target: T1, STING (Stimulator of Interferon Genes) (Homo sapiens, UniProt Q86WV6, G230A/H232R/R293Q/R71H)
# T1 construct: host or cells: THP-1-Lucia ISG cells (human monocytic line)
# Test: ISG-LUC activation assay (ISRE-Luciferase assay in THP-1 Lucia ISG reporter cells)
# Format: cell-based
# Conditions: THP-1 Lucia ISG cells, 24 hours, luciferase reporter; read-out: ISG-LUC activation assay (EC50)
# Source text: This has been established using a primary assay involving a human THP-1 cell line carrying an IRF-inducible reporter with 5 copies of the IFN signaling response element. Counter screens, involving alternative reporter constructs, rodent cell-based assays, as well as cGAS and STING knock-out cell lines, are used to eliminate luciferase artifacts and ensure human-rodent cross species reactivity, as well as pathway selectivity. Biochemical assays, involving cGAS enzymatic activity and STING protein binding assays, are used to identify the specific target of identified hits.
# THP-1 Lucia ISG cells were resuspended in low-serum growth media (2% FBS) at a density of 5×10^5 cells/ml and treated with test article or vehicle (DMSO). 50 μL of cells were seeded into each well of a 384-well white greiner plates and incubated for 24 hours. To evaluate expression of the luciferase reporter, 30 μl of Quanti-luc (Invivogen) detection reagent was added to each well and luminescence was read using an Envision plate reader (Perkin Elmer) set with an integration time of 0.1 seconds.
# T1 sequence (Q86WV6 whole entry R71H/G230A/H232R/R293Q): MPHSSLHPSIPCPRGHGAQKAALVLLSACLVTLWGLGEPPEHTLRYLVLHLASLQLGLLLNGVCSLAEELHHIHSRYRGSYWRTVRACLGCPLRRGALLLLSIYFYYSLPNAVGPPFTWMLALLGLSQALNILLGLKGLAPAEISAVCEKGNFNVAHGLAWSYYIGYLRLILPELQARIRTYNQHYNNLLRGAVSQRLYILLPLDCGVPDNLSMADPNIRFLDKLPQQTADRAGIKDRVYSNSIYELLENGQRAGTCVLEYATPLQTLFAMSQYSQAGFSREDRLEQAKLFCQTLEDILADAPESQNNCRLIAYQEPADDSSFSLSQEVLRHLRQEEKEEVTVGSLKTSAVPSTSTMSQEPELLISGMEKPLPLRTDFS
row,SMILES,EC50
1,O=c1oc(-c2ccc(-n3ccnc3)nn2)nc2cc(F)c(F)cc12 [Compound 29],140 nM
2,COC(=O)c1cc2cnn(C)c2cc1NC(=O)c1ccc(-n2ccnc2)nn1 [Compound 45],126 nM
3,O=C(Nc1cc(F)c(F)cc1C(=O)NC1CCC(O)(C(F)(F)F)CC1)c1ccc(-n2ccnc2)nn1 (centres unmarked) [Compound 88],5240 nM
4,COC(=O)c1cc(Cl)c(C)nc1NC(=O)c1ccc(-n2ccnc2)nn1 [Compound 47],282 nM
5,CCN(CC)CCOC(=O)c1cc(F)c(F)cc1NC(=O)c1ccc(-n2ccnc2)nn1 [Compound 68],1810 nM
6,COC(=O)c1cc(C(F)(F)F)ccc1NC(=O)c1ccc(-n2ccnc2)nn1 [Compound 26],114 nM
7,COC(=O)c1c(F)c(F)c(F)c(F)c1NC(=O)c1ccc(-n2ccnc2)nn1 [Compound 176],~2480 nM
8,CCOC(=O)C1=C(NC(=O)c2ccc(-n3ccnc3)nn2)CCCCC1 [Compound 120],> 50000 nM
9,CCOC(=O)c1ccccc1NC(=O)c1ccc(-n2ccnc2)nn1 [Compound 64],926 nM
10,CCOC(=O)c1c(F)ccc(F)c1NC(=O)c1ccc(-n2ccnc2)nn1 [Compound 143],9710 nM
11,COc1cc(NC(=O)c2ccc(-n3ccnc3)nn2)c(C(=O)O)cc1F [Compound 54],248 nM
12,COC(=O)c1c(F)cccc1NC(=O)c1ccc(-n2ccnc2)nn1 [Compound 72],1670 nM
13,COC(=O)c1ccc(Cl)cc1NC(=O)c1ccc(-n2ccnc2)nn1 [Compound 17],312 nM
14,O=C(Nc1cc(F)ccc1C(=O)O)c1ccc(-n2ccnc2)nn1 [Compound 169],12600 nM
15,CC(C)COC(=O)c1ccccc1NC(=O)c1ccc(-n2ccnc2)nn1 [Compound 22],895 nM
16,CCOC(=O)C1=C(NC(=O)c2ccc(-n3ccnc3)nn2)CCCC1 [Compound 112],1500 nM
17,Cc1ccc(C(=O)O)c(NC(=O)c2ccc(-n3ccnc3)nn2)c1 [Compound 82],6390 nM
18,COC(=O)c1nc(C2CC2)c(F)cc1NC(=O)c1ccc(-n2ccnc2)nn1 [Compound 145],1580 nM

row,SMILES,EC50
1,O=C(Nc1ccc(F)cc1C(=O)O)c1ccc(-n2ccnc2)nn1 [Compound 158],> 20000 nM
2,COC(=O)c1cc(F)cc(F)c1NC(=O)c1ccc(-n2ccnc2)nn1 [Compound 19],817 nM
3,COC(=O)c1cc(O)ccc1NC(=O)c1ccc(-n2ccnc2)nn1 [Compound 109],8950 nM
4,CCOC(=O)c1cc[nH]c1NC(=O)c1ccc(-n2ccnc2)nn1 [Compound 110],16900 nM
5,O=C(Nc1cc(F)c(F)cc1C(=O)NC1CCC(O)(C(F)(F)F)CC1)c1ccc(-n2ccnc2)nn1 (centres unmarked) [Compound 87],> 20000 nM
6,COC(=O)c1c(F)ccc(F)c1NC(=O)c1ccc(-n2ccnc2)nn1 [Compound 3],10200 nM
7,COC(=O)c1cc2c(cc1NC(=O)c1ccc(-n3ccnc3)nn1)CCCC2 [Compound 114],4350 nM
8,COc1ccc2nc(-c3ccc(-n4ccnc4)nn3)oc(=O)c2c1 [Compound 40],684 nM
9,COC(=O)c1ncc(C(F)(F)F)cc1NC(=O)c1ccc(-n2ccnc2)nn1 [Compound 152],~1270 nM
10,Cc1cc(C(N)=O)c(NC(=O)c2ccc(-n3ccnc3)nn2)cc1F [Compound 134],> 50000 nM
11,COC(=O)c1cc(C)ccc1NC(=O)c1ccc(-n2ccnc2)nn1 [Compound 104],426 nM
12,COC(=O)c1c(F)cc(F)cc1NC(=O)c1ccc(-n2ccnc2)nn1 [Compound 51],198 nM
13,Cc1cc(NC(=O)c2ccc(-n3ccnc3)nn2)c(C(=O)OCCCCO)cc1C [Compound 46],418 nM
14,O=C(Nc1cc(F)c(F)cc1C(=O)NO)c1ccc(-n2ccnc2)nn1 [Compound 150],12200 nM
15,Cn1ncc2cc(C(=O)O)c(NC(=O)c3ccc(-n4ccnc4)nn3)cc21 [Compound 167],14900 nM
16,O=C(Nc1ccccc1C(=O)OC1CCC1)c1ccc(-n2ccnc2)nn1 [Compound 4],2070 nM
17,COC(=O)c1nc(OC)cnc1NC(=O)c1ccc(-n2ccnc2)nn1 [Compound 166],12100 nM
